Assay results published in patent US20130065227A1, “METHODS OF INCREASING MACROPINOCYTOSIS IN CANCER CELLS” (priority 2010, published 2013).

What was measured:
Hs27 = experiment: Stimulation of macropinocytosis (dextran uptake); type: cell-based, human; details: 10 μM for 24, 48, or 72 h, flow cytometry
Protocol: (Panel A) DU145 cells were treated with 10 μM tAS1411 or 10 μM tCRO or no oligonucleotide in complete DMEM medium at 37° C. for the time indicated. After treatment, cell medium was changed for fresh complete medium containing 0.2 mg/ml dextran-10K labeled with Alexa Fluor 488, and cells were incubated for 30 min at 37° C. After incubation, cells were harvested and analyzed by flow cytometry to determine dextran uptake. (Panel B) The same experiment was performed using Hs27 cells. (Panel C) DU145 cells were treated with 10 μM tAS1411 or 10 μM tCRO or no oligonucleotide in complete DMEM medium at 37° C. for 48 h. […]
(§1) AS1411 causes a change in cancer cell morphology that is characterized by vacuolization, irregular nuclei, and swollen cells (Xu et al., 2001, J. Biol. Chem., 276:43221-30). […] To test this idea, DU145 cells were pre-treated for 24 h with tAS1411, then added FL-AS1411 and evaluated uptake after an additional 2 h using flow cytometry. […] This idea is not necessarily inconsistent with the time course data shown in FIG. 1A because the fluorescence signal may decrease over time for a number of reasons, including exocytosis of the ligand and fluorescence quenching due to protein binding or environmental factors (the fluorophore used for flow cytometry is particularly sensitive to acidic environments). […]

MCF10A = experiment: Stimulation of macropinocytosis (dextran uptake); type: cell-based, human; details: MCF-10A, 10 μM for 48 hr or 72 hr
Protocol: FIG. 10 are graphs showing the stimulation of macropinocytosis by GROs. Breast carcinoma cells (MDA-MB-231, MCF-7) or non-malignant breast epithelial cells (MCF10A) cells were plated 18 hr before treatment with 10 μM tAS1411 or 10 μM tCRO or water in complete DMEM medium at 37° C. for 48 hr or 72 hr. After treatment, cell medium was changed for fresh complete medium containing 0.2 mg/ml dextran-10K labeled with Alexa Fluor 488 and cells were incubated for 30 min at 37° C. Cells were then incubated on ice with 1 mg/ml PI in PBS, harvested, and analyzed by flow cytometry. Uptake was normalized to no pre-treatment controls and bars show the mean and SE of three independent experiments. […]
as §1

DU145 = experiment: Stimulation of macropinocytosis (dextran uptake); type: cell-based
Protocol: (Panel A) DU145 cells were treated with 10 μM tAS1411 or 10 μM tCRO or no oligonucleotide in complete DMEM medium at 37° C. for the time indicated. After treatment, cell medium was changed for fresh complete medium containing 0.2 mg/ml dextran-10K labeled with Alexa Fluor 488, and cells were incubated for 30 min at 37° C. After incubation, cells were harvested and analyzed by flow cytometry to determine dextran uptake. (Panel B) The same experiment was performed using Hs27 cells. (Panel C) DU145 cells were treated with 10 μM tAS1411 or 10 μM tCRO or no oligonucleotide in complete DMEM medium at 37° C. for 48 h. After treatment, cell medium was changed for fresh complete medium containing 0.2 mg/ml dextran-10K tagged with Alexa Fluor 488, and cells were incubated for 30 min at 37° C. Then, cells were washed with cold PBS, added PBS containing 5 μg/ml PI and incubated on ice for 5 min. After washing with cold PBS, cells were fixed and the distribution of macropinocytic marker was visualized by confocal microscopy. The nucleus was stained with DAPI (blue). Scale bars, 10 μm. All experiments have been repeated at least three times. Data are mean of three independent samples; bars, SE; *(p<0.05).
FIG. 6 are graphs showing that nucleolin regulates AS1411-induced stimulation of macropinocytosis. DU145 cells were untreated (no transfection) or transfected, without siRNA (mock), or with 30 nM of one of three different nucleolin siRNAs (NCL1, NCL2, NCL3) or a control siRNA (scramble). 48 h after transfection, cells were incubated with 10 μM tAS1411, 10 μM tCRO, or no oligonucleotide in complete DMEM medium at 37° C. for 24 h. (Panel A) After treatment, cell medium was changed for fresh complete medium containing 0.2 mg/ml dextran-10K labeled with Alexa Fluor 488 (green) and incubated for 30 min at 37° C. (Panel B) After treatment, some cells were washed, fresh complete medium containing 10 μM FL-AS1411 added and incubated for 2 h at 37° C. After incubation, cells were harvested and analyzed by flow cytometry. Mean fluorescence was normalized to “not transfected” control (Panel A) or to no pre-treatment control (Panel B). All experiments have been repeated at least three times. Data are the mean of three independent samples; bars, SE; *(p<0.05).
FIG. 11 is a graph showing a comparison between AS1411 and tAS1411 in the ability to stimulate macropinocytosis. DU145 cells were plated 18 hr before treatment with different concentrations (0, 5, 10, or 15 μM) of AS1411, tAS1411 or tCRO in complete DMEM medium at 37° C. for 48 h. After treatment, cell medium was changed for fresh complete medium containing 0.2 mg/ml dextran-10K labeled with Alexa Fluor 488, and cells were incubated for 30 min at 37° C. After incubation, cells were incubated on ice with […] PI in PBS, harvested, fixed and immediately analyzed by flow cytometry.
(§2) To analyze uptake of the oligodeoxynucleotides or dextran-10K (macropinocytic marker) by flow cytometry, 2×10^5 cells in fresh supplemented culture medium (2.5 ml) were plated into 6-well plates for 18 h. After complete adhesion, the cells were incubated with 5′-FAM tagged oligodeoxynucleotides or Alexa Fluor 488 tagged dextran-10K and incubated as indicated in the Description of the Drawings. Cells were washed once with ice-cold PBS, incubated with 1 μg/ml 7-amino-actinomycin D (7-AAD) for 5 min on ice or 1 μg/ml propidium iodide (PI), and washed twice with ice-cold PBS. Cells were then treated with 0.01% trypsin/0.5 mM EDTA (300 μl) for 3 min prior addition 3 ml supplemented culture medium. The cells were then centrifuged and resuspended in 0.5 ml of 1% paraformaldehyde for analysis by flow cytometry using a FACScalibur cytometer (BD Biosciences, Mountain View, Calif.).
AS1411 causes a change in cancer cell morphology that is characterized by vacuolization, irregular nuclei, and swollen cells (Xu et al., 2001, J. Biol. Chem., 276:43221-30). […]

MCF7 = experiment: Stimulation of macropinocytosis (dextran uptake); type: cell-based; details: MCF-7, 10 μM for 48 hr or 72 hr
Protocol: (§3) FIG. 10 are graphs showing the stimulation of macropinocytosis by GROs. Breast carcinoma cells (MDA-MB-231, MCF-7) or non-malignant breast epithelial cells (MCF10A) cells were plated 18 hr before treatment with 10 μM tAS1411 or 10 μM tCRO or water in complete DMEM medium at 37° C. for 48 hr or 72 hr. After treatment, cell medium was changed for fresh complete medium containing 0.2 mg/ml dextran-10K labeled with Alexa Fluor 488 and cells were incubated for 30 min at 37° C. Cells were then incubated on ice with 1 mg/ml PI in PBS, harvested, and analyzed by flow cytometry. Uptake was normalized to no pre-treatment controls and bars show the mean and SE of three independent experiments.
as §2
(§4) AS1411 causes a change in cancer cell morphology that is characterized by vacuolization, irregular nuclei, and swollen cells (Xu et al., 2001, J. Biol. Chem., 276:43221-30). Therefore, the effect of AS1411 on macropinocytosis in DU145 cells and non-malignant Hs27 cells was investigated. […] As in all of the flow cytometry experiments, cells were gated to exclude permeable cells, discounting the possibility that this increase was due to cell death. […] One implication of the finding that AS1411 causes hyperstimulation of macropinocytosis is that treatment of AS1411 might actually promote its own internalization by cancer cells. To test this idea, DU145 cells were pre-treated for 24 h with tAS1411, then added FL-AS1411 and evaluated uptake after an additional 2 h using flow cytometry. […] This idea is not necessarily inconsistent with the time course data shown in FIG. 1A because the fluorescence signal may decrease over time for a number of reasons, including exocytosis of the ligand and fluorescence quenching due to protein binding or environmental factors (the fluorophore used for flow cytometry is particularly sensitive to acidic environments). […]

MDA-MB-231 = experiment: Stimulation of macropinocytosis (dextran uptake); type: cell-based; details: MDA-MB-231, 10 μM for 48 hr or 72 hr
Protocol: as §3, §2, §4

DU145 cells = experiment: FL-AS1411 uptake after tAS1411 pre-treatment (flow cytometry); type: cell-based; details: 10 μM pre-treatment for 24 h, then 10 μM FL-AS1411 2 h
Protocol: FIG. 6 are graphs showing that nucleolin regulates AS1411-induced stimulation of macropinocytosis. DU145 cells were untreated (no transfection) or transfected, without siRNA (mock), or with 30 nM of one of three different nucleolin siRNAs (NCL1, NCL2, NCL3) or a control siRNA (scramble). 48 h after transfection, cells were incubated with 10 μM tAS1411, 10 μM tCRO, or no oligonucleotide in complete DMEM medium at 37° C. for 24 h. (Panel A) After treatment, cell medium was changed for fresh complete medium containing 0.2 mg/ml dextran-10K labeled with Alexa Fluor 488 (green) and incubated for 30 min at 37° C. […] After incubation, cells were harvested and analyzed by flow cytometry. Mean fluorescence was normalized to “not transfected” control (Panel A) or to no pre-treatment control (Panel B). […]
FIG. 12 are graphs showing the effectiveness of pre-treatment of cells with a GRO. […] After incubation, cells were incubated on ice with 1 mg/ml PI in PBS, harvested, fixed and immediately analyzed by flow cytometry. […]
AS1411 causes a change in cancer cell morphology that is characterized by vacuolization, irregular nuclei, and swollen cells (Xu et al., 2001, J. Biol. Chem., 276:43221-30). […] To test this idea, DU145 cells were pre-treated for 24 h with tAS1411, then added FL-AS1411 and evaluated uptake after an additional 2 h using flow cytometry. […]

Hs27 cells = experiment: as above; type: cell-based, human; details: 10 μM pre-treatment for 24 h, then 10 μM FL-AS1411 2 h
Protocol: FIG. 12 are graphs showing the effectiveness of pre-treatment of cells with a GRO. DU145 or Hs27 cells were treated with or without 10 μM tAS1411 in complete DMEM medium at 37° C. for 24 h. After treatment, cells were washed, fresh complete medium containing 10 μM FL-AS1411 was added, and cells were incubated for a further 2 h at 37° C. After incubation, cells were incubated on ice with 1 mg/ml PI in PBS, harvested, fixed and immediately analyzed by flow cytometry.
To analyze uptake of the oligodeoxynucleotides or dextran-10K (macropinocytic marker) by flow cytometry, 2×10^5 cells in fresh supplemented culture medium (2.5 ml) were plated into 6-well plates for 18 h. […]
AS1411 causes a change in cancer cell morphology that is characterized by vacuolization, irregular nuclei, and swollen cells (Xu et al., 2001, J. Biol. Chem., 276:43221-30). […] To test this idea, DU145 cells were pre-treated for 24 h with tAS1411, then added FL-AS1411 and evaluated uptake after an additional 2 h using flow cytometry. […] This idea is not necessarily inconsistent with the time course data shown in FIG. 1A because the fluorescence signal may decrease over time for a number of reasons, including exocytosis of the ligand and fluorescence quenching due to protein binding or environmental factors (the fluorophore used for flow cytometry is particularly sensitive to acidic environments).

## 5′-d(TTTGGTGGTGGTGGTTGTGGTGGTGGTGG) [tAS1411]
Hs27
  uptake of the macropinocytic marker, dextran, after treatment: no increase
MCF10A
  stimulation of macropinocytosis: much reduced effect
DU145; 10 μM for 24, 48, or 72 h, flow cytometry
  uptake of the macropinocytic marker, dextran, after treatment: significant increment in the uptake of the macropinocytic marker, dextran
DU145; 10 μM for 48 h, versus untreated or CRO-treated cells
  dextran uptake by confocal microscopy: higher dextran uptake confined in large vesicle
MCF7
  stimulation of macropinocytosis: induce hyperstimulation of macropinocytosis
MDA-MB-231
  stimulation of macropinocytosis: induce hyperstimulation of macropinocytosis
DU145 cells
  uptake of FL-AS1411 after pre-treatment: increase in the uptake of FL-AS1411
Hs27 cells
  uptake of FL-AS1411 after pre-treatment: no comparable increase
